Values belong to the compound of their own block, whether it stands above or below them.
Target: GST-hRIPK1 (8-327) (Homo sapiens (Human), UniProt Q13546)
Test: Fluorescent Polarization Binding (FP Binding) assay, RIPK1
Conditions: 10 nM GST-hRIPK1 (8-327), 5 nM fluorescent-labeled ligand, RT, 30 min, mean of at least two independent experiments
Summary of the method: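 Binding by fluorescence polarisation at RT: 10 nM baculovirus-expressed GST-hRIPK1 (8-327) and 5 nM fluorescent ligand, 30 min, in 50 mM HEPES pH 7.5, 50 mM MgCl2, 0.02% CHAPS, 1% DMSO. FP read at ex 531/em 595 nm. IC50 from normalised percent inhibition, mean of ≥2 experiments.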

Sequence of GST-hRIPK1 (8-327) (Q13546 8-327): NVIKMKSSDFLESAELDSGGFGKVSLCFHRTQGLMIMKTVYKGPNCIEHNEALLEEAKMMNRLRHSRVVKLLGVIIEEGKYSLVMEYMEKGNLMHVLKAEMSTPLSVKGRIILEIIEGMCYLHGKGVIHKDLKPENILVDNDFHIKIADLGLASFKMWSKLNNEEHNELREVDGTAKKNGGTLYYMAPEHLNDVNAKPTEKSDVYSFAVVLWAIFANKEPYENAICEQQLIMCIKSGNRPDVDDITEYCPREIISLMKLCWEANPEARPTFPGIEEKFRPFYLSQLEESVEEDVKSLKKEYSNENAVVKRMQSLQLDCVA

SMILES: Cn1cnc2cnc(N3CCC(F)(C(=O)N4CCOc5c(C#N)cncc5C4)CC3)nc21 [Example 169, 4-[4-fluoro-1-(9-methylpurin-2-yl)piperidine-4-carbonyl]-3,5-dihydro-2H-pyrido[3,4-f][1,4]oxazepine-9-carbonitrile]
- IC50: 100 to 1000 nM

SMILES: N#Cc1cncc2c1OCCN(C(=O)C1(F)CCN(c3ncc(C(F)(F)F)cn3)CC1)C2 [Example 170, 4-[4-fluoro-1-[5-(trifluoromethyl)pyrimidin-2-yl]piperidine-4-carbonyl]-3,5-dihydro-2H-pyrido[3,4-f][1,4]oxazepine-9-carbonitrile]
- IC50: 100 to 1000 nM

SMILES: N#Cc1cncc2c1OCCN(C(=O)C1(F)CCN(c3ccnc(C(F)(F)F)n3)CC1)C2 [Example 171]
- IC50: 100 to 1000 nM

SMILES: COc1nccc(N2CCC(F)(C(=O)N3CCOc4c(C#N)cncc4C3)CC2)n1 [Example 172, 4-[4-fluoro-1-(2-methoxypyrimidin-4-yl)piperidine-4-carbonyl]-3,5-dihydro-2H-pyrido[3,4-f][1,4]oxazepine-9-carbonitrile]
- IC50: 100 to 1000 nM

SMILES: Cc1ocnc1C(=O)N1CCC(F)(C(=O)N2CCOc3c(C#N)cncc3C2)CC1 [Example 173, 4-[4-fluoro-1-(5-methyloxazole-4-carbonyl)piperidine-4-carbonyl]-3,5-dihydro-2H-pyrido[3,4-f][1,4]oxazepine-9-carbonitrile]
- IC50: 100 to 1000 nM

SMILES: CC(C)COC(=O)N1CCC(F)(C(=O)N2CCOc3c(C#N)cncc3C2)CC1 [Example 174, isobutyl 4-(9-cyano-3,5-dihydro-2H-pyrido[3,4-f][1,4]oxazepine-4-carbonyl)-4-fluoro-piperidine-1-carboxylate]
- IC50: > 1000 nM

SMILES: CC(C)(C)C(=O)N1CCOc2c(C#N)cncc2C1 [Example 175, 4-(2,2-dimethylpropanoyl)-3,5-dihydro-2H-pyrido[3,4-f][1,4]oxazepine-9-carbonitrile]
- IC50: 0.1 to 100 nM

SMILES: N#Cc1cncc2c1OCCN(C(=O)C1(F)CCN(c3ncc(F)cn3)C1)C2 (centres unmarked) [Example 176, 4-[3-fluoro-1-(5-fluoropyrimidin-2-yl)pyrrolidine-3-carbonyl]-3,5-dihydro-2H-pyrido[3,4-f][1,4]oxazepine-9-carbonitrile]
- IC50: > 1000 nM

SMILES: N#Cc1cncc2c1OCCN(C(=O)C1(Cl)CCN(c3ncc(F)cn3)CC1)C2 [Example 177, 4-[4-chloro-1-(5-fluoropyrimidin-2-yl)piperidine-4-carbonyl]-3,5-dihydro-2H-pyrido[3,4-f][1,4]oxazepine-9-carbonitrile]
- IC50: 0.1 to 100 nM

SMILES: CCOc1nc(N2CCC(F)(C(=O)N3CCOc4c(C#N)cncc4C3)CC2)ncc1F [Example 178, 4-[1-(4-ethoxy-5-fluoro-pyrimidin-2-yl)-4-fluoro-piperidine-4-carbonyl]-3,5-dihydro-2H-pyrido[3,4-f][1,4]oxazepine-9-carbonitrile]
- IC50: 0.1 to 100 nM

SMILES: N#Cc1cncc2c1OCCN(C(=O)C1(F)CCN(c3ccnc4nccn34)CC1)C2 [Example 180]
- IC50: 100 to 1000 nM

SMILES: CC(C)(CSc1ncc(F)cn1)C(=O)N1CCOc2c(C#N)cncc2C1 [Example 181]
- IC50: > 1000 nM

SMILES: N#Cc1cncc2c1OCCN(C(=O)C1(C#N)CCN(c3ncc(F)cn3)CC1)C2 [Example 182, 4-[4-cyano-1-(5-fluoropyrimidin-2-yl)piperidine-4-carbonyl]-3,5-dihydro-2H-pyrido[3,4-f][1,4]oxazepine-9-carbonitrile]
- IC50: 100 to 1000 nM

SMILES: N#Cc1cccc2c1OCCN(C(=O)C1CCN(c3ncc(F)cn3)CC1)C2 [Example 183, 4-[1-(5-fluoropyrimidin-2-yl)piperidine-4-carbonyl]-3,5-dihydro-2H-1,4-benzoxazepine-9-carbonitrile]
- IC50: 0.1 to 100 nM

SMILES: COC1(C(=O)N2CCOc3c(C#N)cncc3C2)CCN(c2ncc(F)cn2)CC1 [Example 185, 4-[1-(5-fluoropyrimidin-2-yl)-4-methoxy-piperidine-4-carbonyl]-3,5-dihydro-2H-pyrido[3,4-f][1,4]oxazepine-9-carbonitrile]
- IC50: 0.1 to 100 nM

- IC50: > 1000 nM
SMILES: COc1cnc(Cl)nc1N1CCC(F)(C(=O)N2CCOc3c(C#N)cncc3C2)CC1 [Example 186, 4-[1-(2-chloro-5-methoxy-pyrimidin-4-yl)-4-fluoro-piperidine-4-carbonyl]-3,5-dihydro-2H-pyrido[3,4-f][1,4]oxazepine-9-carbonitrile]

SMILES: CC1CN(c2ncc(F)cn2)CCC1C(=O)N1CCOc2c(C#N)cncc2C1 (centres unmarked) [Example 187, 4-[1-(5-fluoropyrimidin-2-yl)-3-methyl-piperidine-4-carbonyl]-3,5-dihydro-2H-pyrido[3,4-f][1,4]oxazepine-9-carbonitrile]
- IC50: 0.1 to 100 nM

SMILES: N#Cc1cncc2c1OCCN(C(=O)C1(F)CCN(c3ccc(F)cn3)CC1)C2 [Example 188, 4-[4-fluoro-1-(5-fluoro-2-pyridyl)piperidine-4-carbonyl]-3,5-dihydro-2H-pyrido[3,4-f][1,4]oxazepine-9-carbonitrile]
- IC50: 0.1 to 100 nM

SMILES: N#Cc1cncc2c1OCCN(C(=O)C1(F)CCN(c3ncc(C(F)F)cn3)CC1)C2 [Example 189, 4-[1-[5-(difluoromethyl)pyrimidin-2-yl]-4-fluoro-piperidine-4-carbonyl]-3,5-dihydro-2H-pyrido[3,4-f][1,4]oxazepine-9-carbonitrile]
- IC50: 100 to 1000 nM

SMILES: COC1(C(=O)N2CCOc3c(C#N)cncc3C2)CCN(c2ccc(F)cn2)CC1 [Example 190, 4-[1-(5-fluoro-2-pyridyl)-4-methoxy-piperidine-4-carbonyl]-3,5-dihydro-2H-pyrido[3,4-f][1,4]oxazepine-9-carbonitrile]
- IC50: 100 to 1000 nM

SMILES: COc1nc(N2CCC(F)(C(=O)N3CCOc4c(C#N)cncc4C3)CC2)ncc1F [Example 191, 4-[4-fluoro-1-(5-fluoro-4-methoxy-pyrimidin-2-yl)piperidine-4-carbonyl]-3,5-dihydro-2H-pyrido[3,4-f][1,4]oxazepine-9-carbonitrile]
- IC50: 0.1 to 100 nM

SMILES: N#Cc1cncc2c1OCCN(C(=O)C1(F)CCN(c3ncc(F)cc3F)CC1)C2 [Example 192, 4-[1-(3,5-difluoro-2-pyridyl)-4-fluoro-piperidine-4-carbonyl]-3,5-dihydro-2H-pyrido[3,4-f][1,4]oxazepine-9-carbonitrile]
- IC50: 0.1 to 100 nM

SMILES: N#Cc1cncc2c1OCCN(C(=O)C1(F)CCN(c3cnc(F)c(F)c3)CC1)C2 [Example 193, 4-[1-(5,6-difluoro-3-pyridyl)-4-fluoro-piperidine-4-carbonyl]-3,5-dihydro-2H-pyrido[3,4-f][1,4]oxazepine-9-carbonitrile]
- IC50: > 1000 nM

SMILES: COc1nc(N2CCC(OC)(C(=O)N3CCOc4c(C#N)cncc4C3)CC2)ncc1F [Example 194, 4-[1-(5-fluoro-4-methoxy-pyrimidin-2-yl)-4-methoxy-piperidine-4-carbonyl]-3,5-dihydro-2H-pyrido[3,4-f][1,4]oxazepine-9-carbonitrile]
- IC50: 0.1 to 100 nM

SMILES: COc1nc(N2CCC(OC)(C(=O)N3CCOc4c(C#N)cncc4C3)CC2)nc(C)c1F [Example 195, 4-[1-(5-fluoro-4-methoxy-6-methyl-pyrimidin-2-yl)-4-methoxy-piperidine-4-carbonyl]-3,5-dihydro-2H-pyrido[3,4-f][1,4]oxazepine-9-carbonitrile]
- IC50: > 1000 nM

SMILES: COc1nc(N2CCC(F)(C(=O)N3CCOc4c(C#N)cncc4C3)CC2)nc(C)c1F [Example 196, 4-[4-fluoro-1-(5-fluoro-4-methoxy-6-methyl-pyrimidin-2-yl)piperidine-4-carbonyl]-3,5-dihydro-2H-pyrido[3,4-f][1,4]oxazepine-9-carbonitrile]
- IC50: 100 to 1000 nM

— US11203600B2 (Denali Therapeutics Inc., priority 2017, dated 2021)
